Measured values as given in patent publication US9045491B2, “Thienyl [3,2-D] pyrimidin-4-one compounds, preparation method, pharmaceutical compositions and use thereof” (SHANGHAI INSTITUTE OF MATERIA MEDICA, CHINESE ACADEMY OF …, priority 2011, dated 2015).

What was measured:
Assay type in all cases: biochemical
[1] = target: dipeptidyl peptidase 7 (DPP 7) (Homo sapiens, UniProt Q9UHL4); assay: DPP 7 activity screening; conditions: N.I. = No Inhibition
Procedure: (§1) Screening method: dipeptidyl peptidase IV (DPP IV) activity screening, dipeptidyl peptidase 7 (DPP 7), dipeptidyl peptidase 8 (DPP 8) activity screening, and dipeptidyl peptidase 9 (DPP 9) activity screening.
(§2) Sample treatment: the sample was dissolved in DMSO and stored in low temperature. The concentration of DMSO in the final system was controlled so that the detected activity was not affected.
(§3) The activity of sample was tested under the selected single concentration from preliminary screening, for example, 20 μg/mL. […] The software for calculation was Graphpad Prism 4 and the model used for fitting was sigmoidal dose-response (variable slope). For most inhibitor screening models, the bottom and top of the fitting curve were set to 0 and 100.

human DPP 8 = target: T1, human DPP 8 (Homo sapiens, UniProt Q6V1X1); assay: DPP 8 activity screening (Ala-Pro-AMC fluorescence); conditions: N.I. = No Inhibition
T1 construct: made in house; host or cells: insect cells, baculovirus Bac-to-Bac
Excerpt: as §1
(§4) Materials: human DPP IV, obtained extracellular fragment of protease DPP IV (aa29-766), was expressed and purified by our laboratory using baculovirus expression system Bac-to-Bac (purchased from GIBCO company) in accordance with the conventional experimental technology; human DPP 8 was obtained in insect cells by our laboratory using baculovirus expression system Bac-to-Bac (purchased from GIBCO company) in accordance with the conventional experimental technology; Human DPP 9 was obtained in insect cells by our laboratory using baculovirus expression system Bac-to-Bac (purchased from GIBCO company) in accordance with the conventional experimental technology; and the substrate Ala-Pro-AMC was synthesized by GL Biochem (Shanghai) Ltd.
(§5) Principle of Activity test: DPP IV, DPP 8 and DPP 9 can specifically hydrolyze the substrate Ala-Pro-AMC to form product AMC, and AMC is excited by 355 nm of UV light to generate 460 nm of emission light. The linear change of fluorescence value at 460 nm in unit time was dynamically measured and DPP IV activity was obtained by calculation.
as §2, §3

FAP = target: T2, FAP (Homo sapiens, UniProt Q12884); assay: FAP inhibition (Table 1); conditions: N.I. = No Inhibition
T2 sequence (Q12884 1-760): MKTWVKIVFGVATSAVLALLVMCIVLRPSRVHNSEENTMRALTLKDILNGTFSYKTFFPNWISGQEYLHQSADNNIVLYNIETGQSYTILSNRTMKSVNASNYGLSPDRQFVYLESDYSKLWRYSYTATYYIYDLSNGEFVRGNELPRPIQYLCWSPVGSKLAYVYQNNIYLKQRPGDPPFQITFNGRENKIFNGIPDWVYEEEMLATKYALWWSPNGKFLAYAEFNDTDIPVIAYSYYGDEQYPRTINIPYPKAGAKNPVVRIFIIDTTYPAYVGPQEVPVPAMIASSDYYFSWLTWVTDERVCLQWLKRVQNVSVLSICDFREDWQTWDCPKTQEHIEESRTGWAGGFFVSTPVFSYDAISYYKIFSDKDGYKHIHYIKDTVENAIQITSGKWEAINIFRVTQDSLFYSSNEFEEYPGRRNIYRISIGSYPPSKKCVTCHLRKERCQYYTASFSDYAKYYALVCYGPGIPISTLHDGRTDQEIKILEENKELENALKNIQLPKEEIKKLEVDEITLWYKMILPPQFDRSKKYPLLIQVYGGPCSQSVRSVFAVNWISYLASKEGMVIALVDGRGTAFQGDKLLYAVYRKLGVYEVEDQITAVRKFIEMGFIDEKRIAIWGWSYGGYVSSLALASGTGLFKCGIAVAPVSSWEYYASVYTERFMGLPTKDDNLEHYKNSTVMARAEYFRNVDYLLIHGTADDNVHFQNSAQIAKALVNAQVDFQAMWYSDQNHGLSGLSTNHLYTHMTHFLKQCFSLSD

Human DPP 9 = target: T3, Human DPP 9 (Homo sapiens, UniProt Q86TI2); assay: DPP 9 activity screening (Ala-Pro-AMC fluorescence); conditions: N.I. = No Inhibition
T3 construct: made in house; host or cells: insect cells, baculovirus Bac-to-Bac
Excerpt: as §1, §4, §5, §2, §3

human DPP IV = target: T4, human DPP IV (Homo sapiens, UniProt P27487); assay: DPP IV activity screening (Ala-Pro-AMC fluorescence)
T4 construct: extracellular fragment of protease DPP IV (aa29-766); made in house; host or cells: baculovirus expression system Bac-to-Bac
Procedure: as §1
Instruments: Microplate Reader (PerkinElmer, USA).
The linear change of fluorescence value at 460 nm in unit time was dynamically measured and DPP IV activity was obtained by calculation.
as §2, §3

T4 sequence (P27487 29-766): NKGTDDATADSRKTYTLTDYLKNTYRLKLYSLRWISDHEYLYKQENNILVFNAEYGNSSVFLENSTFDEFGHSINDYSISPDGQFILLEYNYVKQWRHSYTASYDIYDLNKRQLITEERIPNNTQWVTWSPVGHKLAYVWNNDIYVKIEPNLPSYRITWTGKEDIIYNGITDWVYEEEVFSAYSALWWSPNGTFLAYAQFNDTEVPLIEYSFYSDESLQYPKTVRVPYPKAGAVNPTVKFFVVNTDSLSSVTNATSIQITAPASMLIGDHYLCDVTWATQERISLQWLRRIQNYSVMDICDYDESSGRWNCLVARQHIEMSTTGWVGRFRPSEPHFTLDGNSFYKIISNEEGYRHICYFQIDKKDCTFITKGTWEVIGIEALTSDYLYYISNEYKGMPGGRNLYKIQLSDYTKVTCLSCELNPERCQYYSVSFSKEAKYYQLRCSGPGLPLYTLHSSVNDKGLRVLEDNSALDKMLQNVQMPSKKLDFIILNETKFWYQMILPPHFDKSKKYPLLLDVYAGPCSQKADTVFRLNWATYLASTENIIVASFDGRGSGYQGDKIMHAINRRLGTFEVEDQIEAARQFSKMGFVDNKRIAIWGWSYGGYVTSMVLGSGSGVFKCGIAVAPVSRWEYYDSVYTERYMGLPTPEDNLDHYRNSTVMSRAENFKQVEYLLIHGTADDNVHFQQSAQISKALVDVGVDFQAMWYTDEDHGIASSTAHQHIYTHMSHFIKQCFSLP
T1 sequence (Q6V1X1 whole entry): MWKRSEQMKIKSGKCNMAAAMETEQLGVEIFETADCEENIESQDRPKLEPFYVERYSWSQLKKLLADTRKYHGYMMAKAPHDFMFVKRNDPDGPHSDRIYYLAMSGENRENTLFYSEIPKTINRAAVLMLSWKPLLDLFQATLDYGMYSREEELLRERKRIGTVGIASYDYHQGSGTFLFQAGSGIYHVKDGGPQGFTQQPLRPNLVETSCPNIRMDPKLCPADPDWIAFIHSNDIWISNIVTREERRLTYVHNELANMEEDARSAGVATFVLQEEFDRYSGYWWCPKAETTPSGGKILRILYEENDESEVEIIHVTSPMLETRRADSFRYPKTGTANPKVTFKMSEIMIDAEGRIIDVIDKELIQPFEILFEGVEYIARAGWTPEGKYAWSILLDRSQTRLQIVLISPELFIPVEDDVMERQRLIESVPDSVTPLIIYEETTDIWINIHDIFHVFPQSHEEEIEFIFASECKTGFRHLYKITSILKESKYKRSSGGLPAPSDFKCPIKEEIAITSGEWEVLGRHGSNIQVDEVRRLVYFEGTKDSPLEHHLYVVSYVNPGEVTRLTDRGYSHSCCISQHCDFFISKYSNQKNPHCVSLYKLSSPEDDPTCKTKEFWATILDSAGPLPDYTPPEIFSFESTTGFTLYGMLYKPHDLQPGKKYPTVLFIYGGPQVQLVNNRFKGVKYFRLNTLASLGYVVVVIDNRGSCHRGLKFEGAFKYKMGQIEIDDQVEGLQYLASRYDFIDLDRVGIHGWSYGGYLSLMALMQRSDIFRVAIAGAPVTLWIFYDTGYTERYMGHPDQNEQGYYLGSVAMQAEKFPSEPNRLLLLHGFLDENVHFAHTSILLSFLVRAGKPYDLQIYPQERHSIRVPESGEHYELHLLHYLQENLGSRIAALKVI
T3 sequence (Q86TI2 whole entry): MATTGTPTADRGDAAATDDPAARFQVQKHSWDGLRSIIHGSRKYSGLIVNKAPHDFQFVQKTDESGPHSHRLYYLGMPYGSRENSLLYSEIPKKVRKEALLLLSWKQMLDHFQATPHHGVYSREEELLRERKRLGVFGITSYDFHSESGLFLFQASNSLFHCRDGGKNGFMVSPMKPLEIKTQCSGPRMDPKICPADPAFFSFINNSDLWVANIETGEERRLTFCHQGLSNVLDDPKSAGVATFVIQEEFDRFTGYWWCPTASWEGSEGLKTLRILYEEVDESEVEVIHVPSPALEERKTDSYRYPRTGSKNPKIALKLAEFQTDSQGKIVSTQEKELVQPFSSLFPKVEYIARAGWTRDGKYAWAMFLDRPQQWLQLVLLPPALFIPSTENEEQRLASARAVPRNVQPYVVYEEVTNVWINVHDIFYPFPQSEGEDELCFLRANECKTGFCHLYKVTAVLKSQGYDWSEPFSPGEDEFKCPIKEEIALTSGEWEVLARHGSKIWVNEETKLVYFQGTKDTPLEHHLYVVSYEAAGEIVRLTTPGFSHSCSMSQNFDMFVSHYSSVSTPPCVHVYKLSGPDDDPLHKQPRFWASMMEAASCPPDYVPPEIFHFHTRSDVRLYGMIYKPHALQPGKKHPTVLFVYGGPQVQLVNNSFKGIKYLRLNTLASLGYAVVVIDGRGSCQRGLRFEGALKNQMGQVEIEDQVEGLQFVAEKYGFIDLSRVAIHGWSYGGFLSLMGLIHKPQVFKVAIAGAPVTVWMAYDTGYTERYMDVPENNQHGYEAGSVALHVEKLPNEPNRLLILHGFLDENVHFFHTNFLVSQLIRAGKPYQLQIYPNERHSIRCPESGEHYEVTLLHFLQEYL

Row | SMILES | DPP 7 IC50 [1] | DPP 8 IC50 (human DPP 8) | FAP IC50 (FAP) | DPP 9 IC50 (Human DPP 9) | IC50 (human DPP IV) | IC50 (human DPP 8) | IC50 (FAP) | IC50 (Human DPP 9) | IC50 [1]
1 | CC(C)CCNC(=O)c1cc2nc(N3CCC[C@@H](N)C3)n(Cc3ccccc3C#N)c(=O)c2s1 [Compound 121, (R)-2-(3-aminopiperidin-1-yl)-3-(2-cyanobenzyl)-N-isopentyl-4-oxo-3,4-dihydrothieno[3,2-d]pyrimidine-6-carboxamide] | N.I. | N.I. | N.I. | N.I. | 0.0269 µM |  |  |  | 
2 | N#Cc1ccccc1Cn1c(N2CCC[C@@H](N)C2)nc2c(C(=O)N3CCCC3)csc2c1=O [Compound 76, (R)-2-((2-(3-aminopiperidin-1-yl)-4-oxo-7-(pyrrolidine-1-carbonyl)thieno-[3,2-d]pyrimidin-3(4H)-yl)methyl)-benzonitrile] | N.I. | N.I. | N.I. | N.I. | 0.0816 µM |  |  |  | 
3 | N#Cc1ccccc1Cn1c(N2CCC[C@@H](N)C2)nc2cc(C(=O)NCc3ccccc3F)sc2c1=O [Compound 109, (R)-2-(3-aminopiperidin-1-yl)-3-(2-cyanobenzyl)-N-(2-fluorobenzyl)-4-oxo-3,4-dihydrothieno[3,2-d]pyrimidine-6-carboxamide] | N.I. |  |  |  | 0.0156 µM | 62.1 µM | 101 µM | 91.8 µM | 
4 | CC(=O)OCc1csc2c(=O)n(Cc3ccccc3C#N)c(N3CCC[C@@H](N)C3)nc12 [Compound 56, (R)-(2-(3-aminopiperidin-1-yl)-3-(2-cyanobenzyl)-4-oxo-3,4-dihydrothieno-[3,2-d]pyrimidin-7-yl)methyl acetate] | N.I. | N.I. | N.I. | N.I. | 0.0113 µM |  |  |  | 
5 | N#Cc1ccccc1Cn1c(N2CCC[C@@H](N)C2)nc2c(C(=O)NCCO)csc2c1=O [Compound 60, (R)-2-(3-aminopiperidin-1-yl)-3-(2-cyanobenzyl)-N-(2-hydroxyethyl)-4-oxo-3,4-dihydrothieno[3,2-d]-pyrimidine-7-carboxamide] | N.I. |  |  |  | 0.0133 µM | 36.8 µM | 57.1 µM | 110 µM | 
6 | CS(=O)(=O)Nc1csc2c(=O)n(Cc3ccccc3C#N)c(N3CCC[C@@H](N)C3)nc12 [Compound 85, (R)-N-(2-(3-aminopiperidin-1-yl)-3-(2-cyanobenzyl)-4-oxo-3,4-dihydrothieno-[3,2-d]pyrimidin-7-yl) methanesulfonamide] | N.I. |  |  | N.I. | 0.0371 µM | 339 µM | 255 µM |  | 
7 | COC(=O)[C@@H](NC(=O)c1csc2c(=O)n(Cc3ccccc3C#N)c(N3CCC[C@@H](N)C3)nc12)c1ccccc1 [Compound 66, (S)-methyl 2-(2-((R)-3-aminopiperidin-1-yl)-3-(2-cyanobenzyl)-4-oxo-3,4-dihydrothieno[3,2-d]pyrimidine-7-carboxamido)-2-phenylacetate] | N.I. |  |  |  | 0.0358 µM | 14.4 µM | 18.8 µM | 47.1 µM | 
8 | N#Cc1ccccc1Cn1c(N2CCC[C@@H](N)C2)nc2cc(CN3CCOCC3)sc2c1=O [Compound 95, (R)-2-((2-(3-aminopiperidin-1-yl)-6-(morpholinomethyl)-4-oxothieno-[3,2-d]pyrimidin-3(4H)-yl)methyl)benzonitrile] | N.I. | N.I. | N.I. | N.I. | 0.0592 µM |  |  |  | 
9 | COCCCNC(=O)c1csc2c(=O)n(Cc3ccccc3C#N)c(N3CCC[C@@H](N)C3)nc12 [Compound 75, (R)-2-(3-aminopiperidin-1-yl)-3-(2-cyanobenzyl)-N-(3-methoxypropyl)-4-oxo-3,4-dihydrothieno[3,2-d]pyrimidine-7-carboxamide] | N.I. |  |  |  | 0.00815 µM | 23 µM | 28.3 µM | 91.7 µM | 
10 | COC(=O)c1csc2c(=O)n(Cc3ccccc3C#N)c(N3CCC[C@@H](N)C3)nc12 [Compound 57, (R)-methyl 2-(3-aminopiperidin-1-yl)-3-(2-cyanobenzyl)-4-oxo-3,4-dihydrothieno[3,2-d]pyrimidine-7-carboxylate] |  | N.I. | N.I. | N.I. | 0.02 µM |  |  |  | 69.5 µM
11 | N#Cc1ccccc1Cn1c(N2CCC[C@@H](N)C2)nc2cc(C(=O)NC3CC3)sc2c1=O [Compound 40, (R)-2-(3-aminopiperidin-1-yl)-3-(2-cyanobenzyl)-N-cyclopropyl-4-oxo-3,4-dihydrothieno[3,2-d]pyrimidine-6-carboxamide] | N.I. | N.I. |  |  | 0.0183 µM |  | 213 µM | 266 µM | 
12 | Cl.N#Cc1ccccc1Cn1c(N2CCC[C@@H](N)C2)nc2cc(C(=O)O)sc2c1=O [Compound 39, (R)-2-(3-aminopiperidin-1-yl)-3-(2-cyanobenzyl)-4-oxo-3,4-dihydrothieno-[3,2-d]pyrimidine-6-carboxylic acid hydrochloride] | N.I. | N.I. | N.I. | N.I. | 0.0283 µM |  |  |  | 
13 | CNC(=O)c1csc2c(=O)n(Cc3ccccc3C#N)c(N3CCC[C@@H](N)C3)nc12 [Compound 61, (R)-2-(3-aminopiperidin-1-yl)-3-(2-cyanobenzyl)-N-methyl-4-oxo-3,4-dihydrothieno[3,2-d]pyrimidine-7-carboxamide] | N.I. |  |  |  | 0.0139 µM | 45.9 µM | 30.3 µM | 254 µM | 
14 | N#Cc1ccccc1Cn1c(N2CCC[C@@H](N)C2)nc2cc(C(=O)NCc3ccc(C(F)(F)F)cc3)sc2c1=O [Compound 103, (R)-2-(3-aminopiperidin-1-yl)-3-(2-cyanobenzyl)-4-oxo-N-(4-(trifluoromethyl)benzyl)-3,4-dihydrothieno[3,2-d]pyrimidine-6-carboxamide] | N.I. | N.I. |  |  | 0.0538 µM |  | 145 µM | 86.8 µM | 
15 | N#Cc1ccccc1Cn1c(N2CCC[C@@H](N)C2)nc2c(C#N)csc2c1=O [Compound 83, (R)-2-(3-aminopiperidin-1-yl)-3-(2-cyanobenzyl)-4-oxo-3,4-dihydrothieno-[3,2-d]pyrimidine-7-carbonitrile] |  |  |  | N.I. | 0.0161 µM | 317 µM | 160 µM |  | 38.2 µM
16 | COC(=O)C1CCN(Cc2csc3c(=O)n(Cc4ccccc4C#N)c(N4CCC[C@@H](N)C4)nc23)CC1 [Compound 54, (R)-methyl 1-((2-(3-aminopiperidin-1-yl)-3-(2-cyanobenzyl)-4-oxo-3,4-dihydrothieno[3,2-d]pyrimidin-7-yl)-methyl)piperidine-4-carboxylate] |  | N.I. | N.I. | N.I. | 0.238 µM |  |  |  | 39.2 µM
17 | COCCNC(=O)c1cc2nc(N3CCC[C@@H](N)C3)n(Cc3ccccc3C#N)c(=O)c2s1 [Compound 111, (R)-2-(3-aminopiperidin-1-yl)-3-(2-cyanobenzyl)-N-(2-methoxyethyl)-4-oxo-3,4-dihydrothieno[3,2-d]-pyrimidine-6-carboxamide] | N.I. |  | N.I. |  | 0.0189 µM | 112 µM |  | 131 µM | 
